Like-named read-outs stand apart in the source and are kept apart here.
Key:
[1] = test system: HCV RLuc subgenomic replicon (genotype 1b) in Huh-7.5 cells; experiment: HCV subgenomic replicon assay (Renilla luciferase); format: cell-based, hepatitis C virus; details: for inhibition at 10 µM: Hepatitis C virus
Source text: An HCV Renilla luciferase reporter construct (HCV RLuc; Huang, et al. (2006) Hepatology 43:81-90) was used to measure the effect of each compound on cellular HCV RNA levels. In HCV RLuc, the HCV internal ribosome entry site (IRES) drives the translation of the neomycin and Renilla luciferase genes while the HCV nonstructural proteins (NS3 to NS5B) are translated from the Encephalomyocarditis virus IRES (Huang, et al. (2006) supra). The plasmid DNA was cleaved with ScaI, purified by phenol/chloroform extraction followed by ethanol precipitation, and used as template for RNA transcription using […] T7 RNA transcription kit (Ambion, Austin, Tex.). The RNA transcripts were treated with 2 U DNase I (Ambion) at 37° C. for 30 minutes, purified by acid phenol/chloroform extraction, followed by isopropanol precipitation, and suspended in diethylpyrocarbonate-treated water. RNA concentration was determined by spectrophotometry by measuring the A260. RNA integrity and size was checked on 1% agarose gel. Transcribed RNA was stored in aliquots at −80° C. until needed.
Huh-7.5 cells were transfected with HCV RNA by electroporation. Briefly, subconfluent Huh7.5 cells were trypsinized, suspended in complete growth medium, and centrifuged at 1,000×g for 5 minutes at 4° C. The cell pellets were then washed twice with ice-cold phosphate-buffered saline (PBS) and suspended at 1.75×10^7 cells/mL in ice-cold PBS. Replicon RNA (5 μg) was mixed with 0.4 mL of cell suspension and transferred to 2 mm gap width electroporation cuvette (EPPENDORF AG, Germany) and pulsed 5 times for 99 μsec at 820 V over 1.1 sec intervals using the ECM 830 electroporator instrument (BTX Harvard Apparatus, Holliston, Mass.). After a 5 minute recovery period at room temperature, cells were transferred to 10 ml complete growth medium, and seeded into 10 cm diameter cell culture dishes. Twenty-four hours after transfection, the medium was replaced with fresh complete DMEM supplemented with 1 mg/ml geneticin (Invitrogen) and the medium was replaced every three to four days with fresh medium containing 1 mg/mL geneticin. Geneticin-resistant colonies were selected for a period of two weeks and expanded in the presence of 250 μg/mL geneticin.
HCV RLuc replicon cells were seeded at a density of 10×10^3 cells per well in 96-well plates and incubated for 4-5 hours to allow the cells to attach to the plate. The compounds dissolved in dimethyl sulfoxide (DMSO) were added at a final concentration of 10 μM (DMSO solvent final concentration was 0.5%) and the cells were incubated for 72 hours at 37° C. under 5% CO2 atmosphere. The effects of compounds on HCV replication were then assessed by measuring the Renilla luciferase activity in compound-treated versus DMSO-treated cells. At the end of the incubation period, the medium was aspirated and the cells were washed with 1×PBS. The Renilla luciferase reporter gene assay was performed using the Renilla luciferase assay kit (PROMEGA, Madison, Wis.) according to the manufacturer's instructions. Briefly, the cells were lysed by addition of 50 μL of 1× Renilla luciferase lysis buffer followed by two cycles of freeze/thaw. The luciferase activity content of the lysate was measured with a FLUOSTAR Omega microplate reader instrument (BMG Labtech, Germany) after injecting 50 μL of luciferase substrate and reading for 5 seconds.
To determine if the above identified compounds might be useful as HCV antiviral agents, they were added to cells harboring HCV subgenomic RNA replicon. The HCV replicon chosen was derived from the same HCV strain (genotype 1b) as the NS3 protein used for screening and enzyme assays. […] 75:4614-4624; Blight, et al. (2002) J. Virol. 76:13001-13014). […]

MBHA DNA substrate = experiment: Modified FID assay, SYBR Green I; format: binding; details: for DNA binding (%): SYBR Green I-FID, average (±SD) percent bound at 100 μM
Procedure, shortened: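 Fluorescent intercalator displacement with SYBR Green I (0.68 μM) in place of ethidium bromide and MBHA DNA at 0.32 μM. Normalized data fit to concentration-response equation; EC50 given as mean ± SD of three independent triplicate titrations.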

[2] = Huh7.5, 10 μM compound, triplicate, average ± SD, read-out: HCV replication (% Inh.)
[3] = Huh7.5, 10 μM, read-out: Replicon (% Inhibition @ 10 μM)
[4] = SYBR Green, read-out: FID (SG) EC50 (converted)

Cc1ccc2nc(-c3ccc4nc(-c5ccc(NC(=O)c6ccc7ccccc7c6)cc5)sc4c3)sc2c1S(=O)(=O)O [Compound 33, 2′-(4-(2-naphthamido)phenyl)-6-methyl-[2,6′-bibenzo[d]thiazole]-7-sulfonic acid]
inhibition at 10 µM [1, 2]: 61 ± 10% | inhibition at 10 µM [1, 3]: 21 ± 33% | DNA binding (%) (MBHA DNA substrate): 64 ± 7% | FID (SG) % Displaced @ 100 μM (MBHA DNA substrate; SYBR Green): 63 ± 11% | EC50 (MBHA DNA substrate; [4]): 25 µM

Cc1ccc2nc(-c3ccc4nc(-c5ccc(N(C)C(=O)c6ccc7ccccc7c6)cc5)sc4c3)sc2c1S(=O)(=O)O [Compound 34, 6-methyl-2′-(4-(N-methyl-2-naphthamido)phenyl)-[2,6′-bibenzo[d]thiazole]-7-sulfonic acid]
inhibition at 10 µM [1, 2]: -30 ± 30% | inhibition at 10 µM [1, 3]: 24 ± 32% | DNA binding (%) (MBHA DNA substrate): 35 ± 23% | FID (SG) % Displaced @ 100 μM (MBHA DNA substrate; SYBR Green): 35 ± 23% | EC50 (MBHA DNA substrate; [4]): > 100 µM

Cc1ccc2nc(-c3ccc4nc(-c5ccc(NC(=O)c6ccc7nc(-c8ccc(N)cc8)sc7c6)cc5)sc4c3)sc2c1S(=O)(=O)O [Compound 35, 2′-(4-(2-(4-aminophenyl)benzo[d]thiazole-6-carboxamido)phenyl)-6-methyl-[2,6′-bibenzo[d]thiazole]-7-sulfonic acid]
inhibition at 10 µM [1, 2]: 37 ± 4% | inhibition at 10 µM [1, 3]: 37 ± 4% | DNA binding (%) (MBHA DNA substrate): 59 ± 4% | FID (SG) % Displaced @ 100 μM (MBHA DNA substrate; SYBR Green): 59 ± 4% | EC50 (MBHA DNA substrate; [4]): 68 µM

Cc1ccc2nc(-c3ccc4nc(-c5ccc(NC(=O)c6ccc7nc(-c8ccc(NC(=O)OCC9c%10ccccc%10-c%10ccccc%109)cc8)sc7c6)cc5)sc4c3)sc2c1S(=O)(=O)O.N [Compound 36]
inhibition at 10 µM [1, 2]: 42 ± 5% | inhibition at 10 µM [1, 3]: 44 ± 9% | DNA binding (%) (MBHA DNA substrate): 67 ± 5% | FID (SG) % Displaced @ 100 μM (MBHA DNA substrate; SYBR Green): 67 ± 5% | EC50 (MBHA DNA substrate; [4]): 22 µM

Cc1ccc2nc(-c3ccc(NC(=O)c4ccc(NC(=O)c5ccccc5)cc4)cc3)sc2c1S(=O)(=O)O.N [Compound 40]
inhibition at 10 µM [1, 3]: -19 ± 42% | FID (SG) % Displaced @ 100 μM (MBHA DNA substrate; SYBR Green): 18 ± 2% | EC50 (MBHA DNA substrate; [4]): > 100 µM

Cc1ccc2nc(-c3ccc4nc(-c5ccc(NC(=O)c6ccc(CNC(=O)OCC7c8ccccc8-c8ccccc87)cc6)cc5)sc4c3)sc2c1S(=O)(=O)O.N [Compound 41]
inhibition at 10 µM [1, 3]: 48 ± 18% | FID (SG) % Displaced @ 100 μM (MBHA DNA substrate; SYBR Green): 53 ± 25% | EC50 (MBHA DNA substrate; [4]): 56 µM

Cc1ccc2nc(-c3ccc(NC(=O)c4ccc(NC(=O)OCC5c6ccccc6-c6ccccc65)cc4)cc3)sc2c1S(=O)(=O)O.N [Compound 42]
inhibition at 10 µM [1, 3]: 31 ± 10% | FID (SG) % Displaced @ 100 μM (MBHA DNA substrate; SYBR Green): 44 ± 2% | EC50 (MBHA DNA substrate; [4]): > 100 µM

Cc1ccc2nc(-c3ccc(NC(=O)c4ccc(NC(=S)Nc5ccccc5)cc4)cc3)sc2c1S(=O)(=O)O.N [Compound 43]
inhibition at 10 µM [1, 3]: -13 ± 2% | FID (SG) % Displaced @ 100 μM (MBHA DNA substrate; SYBR Green): 37 ± 4% | EC50 (MBHA DNA substrate; [4]): > 100 µM

Cc1ccc2nc(-c3ccc(NC(=O)c4ccc(NC(=O)c5ccc(C(F)(F)F)cc5)cc4)cc3)sc2c1S(=O)(=O)O.N [Compound 44]
inhibition at 10 µM [1, 3]: 4 ± 8% | FID (SG) % Displaced @ 100 μM (MBHA DNA substrate; SYBR Green): 41 ± 2% | EC50 (MBHA DNA substrate; [4]): > 100 µM

Cc1ccc2nc(-c3ccc(NC(=O)c4ccc(NC(=O)Nc5ccccc5)cc4)cc3)sc2c1S(=O)(=O)O.N [Compound 45]
inhibition at 10 µM [1, 3]: -64 ± 90% | FID (SG) % Displaced @ 100 μM (MBHA DNA substrate; SYBR Green): 17 ± 2% | EC50 (MBHA DNA substrate; [4]): > 100 µM

Cc1ccc2nc(-c3ccc(NC(=O)c4ccc(NC(=O)c5ccc(N)cc5)cc4)cc3)sc2c1S(=O)(=O)O.N [Compound 46]
inhibition at 10 µM [1, 3]: -42 ± 26% | FID (SG) % Displaced @ 100 μM (MBHA DNA substrate; SYBR Green): 21% | EC50 (MBHA DNA substrate; [4]): > 100 µM

Cc1ccc2nc(-c3ccc4nc(-c5ccc(NC(=O)Nc6ccc(C(F)(F)F)cc6)cc5)sc4c3)sc2c1S(=O)(=O)O.N [Compound 47]
inhibition at 10 µM [1, 3]: 7 ± 39% | FID (SG) % Displaced @ 100 μM (MBHA DNA substrate; SYBR Green): 84 ± 22% | EC50 (MBHA DNA substrate; [4]): 18 µM

Cc1ccc2nc(-c3ccc4nc(-c5ccc(NC(=O)Nc6ccc(F)cc6)cc5)sc4c3)sc2c1S(=O)(=O)O.N [Compound 48]
inhibition at 10 µM [1, 3]: 17 ± 25% | FID (SG) % Displaced @ 100 μM (MBHA DNA substrate; SYBR Green): 58 ± 3% | EC50 (MBHA DNA substrate; [4]): 74 µM

Cc1ccc2nc(-c3ccc4nc(-c5ccc(NC(=O)c6cccc7ccccc67)cc5)sc4c3)sc2c1S(=O)(=O)O.N [Compound 49]
inhibition at 10 µM [1, 3]: -9 ± 8% | FID (SG) % Displaced @ 100 μM (MBHA DNA substrate; SYBR Green): 80 ± 3% | EC50 (MBHA DNA substrate; [4]): 30 µM

Cc1ccc2nc(-c3ccc4nc(-c5ccc(NC(=S)Nc6ccccc6)cc5)sc4c3)sc2c1S(=O)(=O)O.N [Compound 50]
inhibition at 10 µM [1, 3]: 9 ± 9% | FID (SG) % Displaced @ 100 μM (MBHA DNA substrate; SYBR Green): 76 ± 9% | EC50 (MBHA DNA substrate; [4]): 30 µM

Cc1ccc2nc(-c3ccc(NC(=O)c4ccc(NC(=O)c5ccc(NC(=O)OCC6c7ccccc7-c7ccccc76)cc5)cc4)cc3)sc2c1S(=O)(=O)O.N [Compound 51]
inhibition at 10 µM [1, 3]: -14 ± 26% | FID (SG) % Displaced @ 100 μM (MBHA DNA substrate; SYBR Green): 22% | EC50 (MBHA DNA substrate; [4]): > 100 µM

Cc1ccc2nc(-c3ccc4nc(-c5ccc(NC(=O)Nc6ccccc6)cc5)sc4c3)sc2c1S(=O)(=O)O.N [Compound 52]
inhibition at 10 µM [1, 3]: -18 ± 56% | FID (SG) % Displaced @ 100 μM (MBHA DNA substrate; SYBR Green): 46 ± 2% | EC50 (MBHA DNA substrate; [4]): > 100 µM

Cc1ccc2nc(-c3ccc4nc(-c5ccc(NCc6ccccc6)cc5)sc4c3)sc2c1S(=O)(=O)O [Compound 53]
inhibition at 10 µM [1, 3]: -64 ± 25% | FID (SG) % Displaced @ 100 μM (MBHA DNA substrate; SYBR Green): 92 ± 4% | EC50 (MBHA DNA substrate; [4]): 27 µM

Cc1ccc2nc(-c3ccc4nc(-c5ccc(NC(=O)Nc6ccc(Cl)cc6)cc5)sc4c3)sc2c1S(=O)(=O)O [Compound 54]
inhibition at 10 µM [1, 3]: 35 ± 28% | FID (SG) % Displaced @ 100 μM (MBHA DNA substrate; SYBR Green): 74 ± 4% | EC50 (MBHA DNA substrate; [4]): 8 µM

COc1ccc(NC(=O)Nc2ccc(-c3nc4ccc(-c5nc6ccc(C)c(S(=O)(=O)O)c6s5)cc4s3)cc2)cc1 [Compound 55]
inhibition at 10 µM [1, 3]: 21 ± 10% | FID (SG) % Displaced @ 100 μM (MBHA DNA substrate; SYBR Green): 55 ± 6% | EC50 (MBHA DNA substrate; [4]): 73 µM

Cc1ccc2nc(-c3ccc4nc(-c5ccc6nc(-c7ccc8nc(-c9ccc(N)cc9)sc8c7)sc6c5)sc4c3)sc2c1S(=O)(=O)O [Compound P4, 2′″-(4-aminophenyl)-6-methyl-[2,6′:2″,6′″-quaterbenzo[d]thiazole]-7-sulfonic acid]
ability to decrease the amount of HCV RNA present in the cultures ([1]; 10 μM): showed any ability to decrease the amount of HCV RNA present in the cultures | fold weaker DNA binding than potency in MBHA (MBHA DNA substrate; DNA binding versus MBHA IC50): 17 fold | EC50 (MBHA DNA substrate; FID, mean ± SD, read-out: DNA Binding (SYBR Green I) EC50): 15 ± 8 µM
